Columns and labels:
AXL = molecular target: T1, AXL (Homo sapiens, UniProt P30530); experiment: TR-FRET kinase activity assay, AXL; type: biochemical; details: ATP at Km, 60 minutes
T1 sequence (P30530 26-894): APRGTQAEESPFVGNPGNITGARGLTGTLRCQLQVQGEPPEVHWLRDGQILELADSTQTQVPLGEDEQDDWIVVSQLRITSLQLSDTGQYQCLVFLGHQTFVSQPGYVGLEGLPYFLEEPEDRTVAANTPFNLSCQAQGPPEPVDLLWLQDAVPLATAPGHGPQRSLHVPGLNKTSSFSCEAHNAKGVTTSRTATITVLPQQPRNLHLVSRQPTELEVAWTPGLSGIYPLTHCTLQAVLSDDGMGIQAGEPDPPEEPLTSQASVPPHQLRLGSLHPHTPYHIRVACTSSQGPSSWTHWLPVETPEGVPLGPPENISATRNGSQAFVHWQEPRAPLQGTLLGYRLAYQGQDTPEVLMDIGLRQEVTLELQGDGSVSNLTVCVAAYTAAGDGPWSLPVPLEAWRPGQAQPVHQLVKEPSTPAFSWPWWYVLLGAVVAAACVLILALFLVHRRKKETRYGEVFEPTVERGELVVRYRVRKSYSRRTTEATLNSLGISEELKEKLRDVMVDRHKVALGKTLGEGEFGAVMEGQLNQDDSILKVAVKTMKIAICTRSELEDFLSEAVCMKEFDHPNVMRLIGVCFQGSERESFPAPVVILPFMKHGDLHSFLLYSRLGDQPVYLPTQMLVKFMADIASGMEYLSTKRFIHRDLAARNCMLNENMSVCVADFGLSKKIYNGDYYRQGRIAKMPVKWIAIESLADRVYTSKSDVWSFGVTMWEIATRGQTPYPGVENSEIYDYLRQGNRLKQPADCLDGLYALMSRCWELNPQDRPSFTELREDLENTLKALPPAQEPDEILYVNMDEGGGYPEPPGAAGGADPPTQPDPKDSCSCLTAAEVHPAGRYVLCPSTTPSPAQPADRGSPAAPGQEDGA
Summary of the method: (§1)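 Enzyme + labelled peptide + cpd premixed; ATP at per-enzyme Km starts rxn. 60 min RT, HEPES pH 7.5/MgCl2/EGTA/Brij 35/DTT buffer. Stop 12.5 mM EDTA, Eu phospho-Ab 30 min dark, TR-FRET read → IC50.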

TYRO3 = molecular target: T2, TYRO3 (Homo sapiens, UniProt Q06418); experiment: TR-FRET kinase activity assay, TYRO3; type: biochemical; details: ATP at Km, 60 minutes
T2 sequence (Q06418 41-890): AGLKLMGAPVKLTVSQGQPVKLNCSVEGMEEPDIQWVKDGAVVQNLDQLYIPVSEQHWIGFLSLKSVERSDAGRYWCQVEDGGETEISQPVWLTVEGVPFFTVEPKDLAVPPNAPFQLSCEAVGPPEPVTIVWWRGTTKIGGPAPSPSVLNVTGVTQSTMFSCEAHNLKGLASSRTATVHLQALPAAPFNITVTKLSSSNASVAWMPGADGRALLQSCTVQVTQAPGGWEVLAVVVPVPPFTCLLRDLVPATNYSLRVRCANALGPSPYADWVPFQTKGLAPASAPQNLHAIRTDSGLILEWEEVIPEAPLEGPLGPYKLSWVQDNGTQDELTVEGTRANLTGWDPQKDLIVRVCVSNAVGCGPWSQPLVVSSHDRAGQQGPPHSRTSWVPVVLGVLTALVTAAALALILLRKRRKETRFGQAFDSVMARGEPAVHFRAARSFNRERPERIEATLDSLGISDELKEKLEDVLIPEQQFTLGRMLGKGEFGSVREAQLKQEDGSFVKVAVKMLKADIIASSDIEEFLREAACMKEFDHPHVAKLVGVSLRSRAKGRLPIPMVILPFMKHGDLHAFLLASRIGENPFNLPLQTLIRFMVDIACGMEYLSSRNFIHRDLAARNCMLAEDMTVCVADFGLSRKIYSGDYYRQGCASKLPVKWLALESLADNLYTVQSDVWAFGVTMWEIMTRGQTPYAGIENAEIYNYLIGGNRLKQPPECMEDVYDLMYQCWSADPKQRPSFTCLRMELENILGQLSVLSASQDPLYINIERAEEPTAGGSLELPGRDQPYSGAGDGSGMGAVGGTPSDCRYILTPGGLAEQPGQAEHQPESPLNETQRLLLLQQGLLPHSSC
Summary of the method: as §1

SMILES | IC50 (AXL) | IC50 (TYRO3)
COC[C@H](C)Nc1ncc2c(-c3ccnc([S@](C)(=N)=O)c3)cc([C@H]3CC[C@H](O)CC3)n2n1 [Compound 575] | 100 to 1000 nM | ≤ 100 nM
COC[C@H](C)Nc1ncc2c([C@H]3CC[C@H](C(C)=O)CC3)cc([C@H]3CC[C@H](O)CC3)n2n1 [Compound 576] | 100 to 1000 nM | ≤ 100 nM
COC[C@H](C)Nc1ncc2c([C@H]3CC[C@H](C(=O)N4CC5(COC5)C4)CC3)cc([C@H]3CC[C@H](O)CC3)n2n1 [Compound 578] | 100 to 1000 nM | ≤ 100 nM
COC[C@H](C)Nc1ncc2c([C@H]3CC[C@@H](C(=O)N4CC5(COC5)C4)CC3)cc([C@H]3CC[C@H](O)CC3)n2n1 [Compound 579] | 100 to 1000 nM | ≤ 100 nM
COC[C@H](C)Nc1ncc2c(-c3cnn(C4COC4)c3)cc([C@@H]3CC[C@H](O)[C@H](C)C3)n2n1 [Compound 587] | ≤ 100 nM | ≤ 100 nM
COC[C@H](C)Nc1ncc2c(-c3cnn(C4COC4)c3)cc([C@@H]3CC[C@H](O)[C@@H](C)C3)n2n1 [Compound 588] | 100 to 1000 nM | ≤ 100 nM
COC[C@H](C)Nc1ncc2c(-c3cnn(C4COC4)c3)cc([C@@H]3CC[C@@H](O)[C@H](C)C3)n2n1 [Compound 589] | ≤ 100 nM | ≤ 100 nM
COC[C@H](C)Nc1ncc2c(-c3cnn(C(C)(C)C(=O)N4C[C@@H](C)N[C@@H](C)C4)c3)cc([C@H]3CC[C@@H](O)CC3)n2n1 [Compound 591] | ≤ 100 nM | ≤ 100 nM
C[C@@H](COC(F)F)Nc1ncc2c(-c3cnn(C(C)(C)C(=O)N4CCN(C)CC4)c3)cc([C@H]3CC[C@H](O)CC3)n2n1 [Compound 593] | ≤ 100 nM | ≤ 100 nM
COC[C@H](C)Nc1ncc2c(-c3cnn(C(C)(C)C(=O)N4CCOCC4)c3)cc([C@@H]3CCc4cn[nH]c4C3)n2n1 [Compound 594] | ≤ 100 nM | ≤ 100 nM

Other lines, results leading:

IC50 (AXL) | IC50 (TYRO3) | SMILES
≤ 100 nM | ≤ 100 nM | COC[C@H](C)Nc1ncc2c([C@H]3CC[C@@H](C(=O)N4CCC(F)(F)CC4)CC3)cc([C@H]3CC[C@H](O)CC3)n2n1 [Compound 577]
≤ 100 nM | ≤ 100 nM | C[C@@H](CC(F)(F)F)Nc1ncc2c(-c3ccnc([S@](C)(=N)=O)c3)cc([C@H]3CC[C@H](O)CC3)n2n1 [Compound 580]
≤ 100 nM | ≤ 100 nM | C[C@@H](CC(F)(F)F)Nc1ncc2c(-c3ccnc([S@@](C)(=N)=O)c3)cc([C@H]3CC[C@H](O)CC3)n2n1 [Compound 581]
≤ 100 nM | ≤ 100 nM | C[C@@H](CC(F)(F)F)Nc1ncc2c(-c3cncc([S@](C)(=N)=O)c3)cc([C@H]3CC[C@H](O)CC3)n2n1 [Compound 582]
≤ 100 nM | ≤ 100 nM | C[C@@H](CC(F)(F)F)Nc1ncc2c(-c3cncc([S@@](C)(=N)=O)c3)cc([C@H]3CC[C@H](O)CC3)n2n1 [Compound 583]
≤ 100 nM | ≤ 100 nM | COC[C@H](C)Nc1ncc2c(-c3ccnc(C(F)(F)F)c3)cc([C@H]3CC[C@H](O)CC3)n2n1 [Compound 584]
≤ 100 nM | ≤ 100 nM | COC[C@H](C)Nc1ncc2c(-c3cnn(C(C)(C)C(=O)N4CCO[C@@H](C(C)(C)O)C4)c3)cc([C@H]3CC[C@H](O)CC3)n2n1 [Compound 585]
≤ 100 nM | ≤ 100 nM | COC[C@H](C)Nc1ncc2c(-c3cnn(C(C)(C)C(=O)N4CCOC(C(C)(C)O)C4)c3)cc([C@H]3CC[C@H](O)CC3)n2n1 (stereo partly drawn) [Compound 586]
